Laboratory results reported in patent publication US20240384268A1, “Oligonucleotides” (Hudson Institute of Medical Research, priority 2021, published 2024).
In the oligonucleotide strings, read from the 5' end, every base follows the letter of its sugar. An asterisk marks phosphorothioate; unmarked linkages are phosphodiester. Other units and linkages are bracketed, terminal groups are in braces. A string of capitals states the bases alone. d = 2'-deoxy (DNA); m = 2'-O-methyl

Key:
Format in all cases: cell-based
[1] = biological target: T1, TLR8 (Homo sapiens, UniProt Q9NR97); assay: HEK-TLR8 NF-κB-luciferase reporter, R848 or Motolimod stimulation (potentiation or inhibition); set-up: expressed in transfected cells; host or cells: 293XLhTLR8 (HEK293); conditions: HEK-TLR8; 500 nM ASO ~30 min; R848 overnight
T1 sequence (Q9NR97 27-1041): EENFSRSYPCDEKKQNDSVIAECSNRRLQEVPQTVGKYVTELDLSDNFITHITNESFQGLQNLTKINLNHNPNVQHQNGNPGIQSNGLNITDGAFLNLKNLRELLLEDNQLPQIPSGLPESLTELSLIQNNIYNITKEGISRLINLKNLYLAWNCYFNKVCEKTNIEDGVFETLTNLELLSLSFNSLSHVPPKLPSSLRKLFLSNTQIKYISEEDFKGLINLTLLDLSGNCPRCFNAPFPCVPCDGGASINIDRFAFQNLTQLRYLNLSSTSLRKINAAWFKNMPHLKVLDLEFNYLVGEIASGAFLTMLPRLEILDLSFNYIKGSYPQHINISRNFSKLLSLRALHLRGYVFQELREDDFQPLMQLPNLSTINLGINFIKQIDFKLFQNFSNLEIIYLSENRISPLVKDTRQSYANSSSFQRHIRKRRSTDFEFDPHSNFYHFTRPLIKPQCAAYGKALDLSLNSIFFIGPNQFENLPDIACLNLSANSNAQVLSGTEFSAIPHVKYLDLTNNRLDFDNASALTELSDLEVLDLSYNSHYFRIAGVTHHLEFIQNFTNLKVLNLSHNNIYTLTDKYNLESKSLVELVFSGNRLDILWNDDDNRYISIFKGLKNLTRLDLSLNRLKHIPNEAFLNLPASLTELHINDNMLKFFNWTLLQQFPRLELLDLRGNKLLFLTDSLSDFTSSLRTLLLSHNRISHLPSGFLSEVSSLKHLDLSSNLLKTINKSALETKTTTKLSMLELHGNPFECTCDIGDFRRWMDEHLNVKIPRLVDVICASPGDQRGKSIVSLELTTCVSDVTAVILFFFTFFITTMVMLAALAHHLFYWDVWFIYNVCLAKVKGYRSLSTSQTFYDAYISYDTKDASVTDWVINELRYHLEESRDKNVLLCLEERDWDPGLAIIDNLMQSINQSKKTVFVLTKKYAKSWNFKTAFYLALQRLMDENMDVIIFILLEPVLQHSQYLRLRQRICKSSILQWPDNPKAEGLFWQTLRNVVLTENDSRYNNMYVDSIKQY
Description: (§1) In such examples, potentiation of TLR8 activity can be identified by observation of an overall increased TLR8 response of the cell population, or a higher proportion of cells having TLR8-positive activity as compared to a negative control condition in which cells are treated with TLR8 agonist in the absence of the oligonucleotide (or in the presence of an appropriate control non-potentiating agent). In one example, 293XLhTLR8 (referred to as HEK-TLR8) cells are transfected with pNF-κB-Luc4 reporter, incubated with an oligonucleotide, and then stimulated with R848. TLR8 activity can be determined by a luciferase assay, which measures activated NF-κB by luminescence. TLR8 activity can also be analysed by measuring cytokine levels, for example by ELISA.
as §1, with “inhibition” for “potentiation”, “decreased” for “increased”, “lower” for “higher”, “positive” for “negative”, “inhibitory” for “non-potentiating”
(§2) For cGAS stimulations, cells were treated for indicated duration with ASOs, prior to transfection with ISD70 (human cells) or ISD45 (mouse cells) (the ASOs were not washed off prior to ISD transfection unless otherwise indicated). The cGAS ligands ISD45 (Stetson and Medzhitov, 2006) and ISD70 (also known as VACV-70 (Unterholzner et al., 2010)) (Table 1) were resuspended as follows: 5 1d of sense and 5 μl of antisense strands at 10 μg/μl were added to 90 μl PBS under sterile conditions, heated at 75° C. for 30 min, prior to letting cool down at room temperature and aliquoting (stock at 1 μg/1 l). The ISDs were transfected at a concentration of […] at a ratio of 1 μg:1 μl with Lipofectamine 2000 in Opti-MEM (Thermo Fisher Scientific). HEK-TLR3, HEK-TLR7 and […] were treated with indicated concentration of ASOs for 20-50 min, prior to stimulation with poly(I:C) (Invivogen), R848 (Invivogen), Motolimod (MedChemExpress) and the Class B CpG oligonucleotides ODN 2006 (synthesised by IDT and resuspended in RNase-free TE buffer [Table 1]), respectively. The TLR2/1 agonist PAM3CSK4 (Invivogen), the TLR4 agonist lipopolysaccharide (Invivogen), the Class B CpG oligonucleotides ODN 1826 (synthesised by IDT and resuspended in RNase-free TE buffer), the mouse Sting agonist DMXAA (Cayman) and the human STING agonist (compound #3 from (Raanjulu et al., 2018), referred to as GSK herein—kind gift from Cancer Therapeutics CRC, Australia) were used at indicated concentrations. Aspirin (Sigma—A2093) was resuspended in pure medium to 10 mM, filter sterilised and added to the cells at 2 mM final. All ASOs were synthesised by Integrated DNA Technologies (IDT), and resuspended in RNase-free TE buffer, pH 8.0 (Thermo Fisher Scientific). Cell viability was assessed by adding 1× fresh resazurin solution to the wells (10λ solution made up with 7 mg resazurin [Sigma—R7017] dissolved in 3.5 ml PBS, sterile filtered at […]) for 4 h, prior to reading at with a Fluostar OPTIMA (BMG LABTECH) plate-reader (fluorescence: Excitation 535 nm, Emission 590); wells with medium only and 1× resazurin were used as blanks.

[2] = biological target: cGAS (Homo sapiens, UniProt Q8N884); assay: ISD70-driven IP-10 (and IFN-β) production in THP-1 cells, ELISA; set-up: endogenous in cells; host or cells: THP-1 (undifferentiated); conditions: THP-1; 2′OMe or PS oligos, 100-250 nM, pre-treatment as in figure legends; ISD70 2.5 μg/ml
cGAS, sequence (Q8N884 whole entry): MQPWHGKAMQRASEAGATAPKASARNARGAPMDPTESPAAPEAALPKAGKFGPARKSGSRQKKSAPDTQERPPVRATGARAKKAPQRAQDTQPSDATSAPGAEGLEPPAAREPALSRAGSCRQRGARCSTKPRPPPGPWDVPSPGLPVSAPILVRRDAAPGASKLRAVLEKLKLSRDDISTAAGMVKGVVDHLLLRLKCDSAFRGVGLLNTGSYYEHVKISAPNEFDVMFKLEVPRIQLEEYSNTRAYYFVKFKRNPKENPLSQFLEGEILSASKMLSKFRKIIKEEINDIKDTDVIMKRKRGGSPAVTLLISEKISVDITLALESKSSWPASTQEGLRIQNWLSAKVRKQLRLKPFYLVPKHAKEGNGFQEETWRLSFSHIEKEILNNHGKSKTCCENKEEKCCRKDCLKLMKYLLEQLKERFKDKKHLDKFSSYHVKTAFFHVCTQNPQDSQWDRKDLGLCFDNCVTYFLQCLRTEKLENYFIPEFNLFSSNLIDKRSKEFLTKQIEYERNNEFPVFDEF
Description: The ability of an oligonucleotide to inhibit cGAS activity can, for example, be analysed by incubating cells which express cGAS with an oligonucleotide, then stimulating said cells with a cGAS agonist (e.g., 70-bp interferon stimulating DNA or ISD70; 45-bp interferon stimulating DNA or ISD45), and analysing the overall cGAS response in the cell population, or analysing the proportion of cells having cGAS-positive activity after a defined period of time.
In such examples, inhibition of cGAS activity can be identified by observation of an overall decreased cGAS response of the cell population, or a lower proportion of cells having cGAS-positive activity as compared to positive control condition in which cells are treated with cGAS agonist in the absence of the oligonucleotide (or in the presence of an appropriate control inhibitory agent). In one example, THP-1 or HT-29 cells are transfected with ISD70 and incubated with an oligonucleotide. cGAS activity can then be determined by cytokine (e.g., IP-10 and/or IFNβ) expression (e.g., gene and/or protein expression) and/or secretion levels, such as by ELISA. A similar assay can be performed with LL171 cells transfected with ISD45. […] By way of example, cGAS enzymatic activity may be assessed in vitro using recombinant cGAS and then measuring activity thereof by way of a cGAMP ELISA.
as §2

[3] = biological target: T2, human TLR9 (Homo sapiens, UniProt Q9NR96); assay: HEK-TLR9 NF-κB-luciferase reporter, ODN2006 stimulation; conditions: HEK-TLR9; 500 nM 2′OMe or PS oligos; 200 nM ODN2006
T2 construct: HA; host or cells: 293XL-hTLR9-HA (HEK293)
T2 sequence (Q9NR96 26-1032): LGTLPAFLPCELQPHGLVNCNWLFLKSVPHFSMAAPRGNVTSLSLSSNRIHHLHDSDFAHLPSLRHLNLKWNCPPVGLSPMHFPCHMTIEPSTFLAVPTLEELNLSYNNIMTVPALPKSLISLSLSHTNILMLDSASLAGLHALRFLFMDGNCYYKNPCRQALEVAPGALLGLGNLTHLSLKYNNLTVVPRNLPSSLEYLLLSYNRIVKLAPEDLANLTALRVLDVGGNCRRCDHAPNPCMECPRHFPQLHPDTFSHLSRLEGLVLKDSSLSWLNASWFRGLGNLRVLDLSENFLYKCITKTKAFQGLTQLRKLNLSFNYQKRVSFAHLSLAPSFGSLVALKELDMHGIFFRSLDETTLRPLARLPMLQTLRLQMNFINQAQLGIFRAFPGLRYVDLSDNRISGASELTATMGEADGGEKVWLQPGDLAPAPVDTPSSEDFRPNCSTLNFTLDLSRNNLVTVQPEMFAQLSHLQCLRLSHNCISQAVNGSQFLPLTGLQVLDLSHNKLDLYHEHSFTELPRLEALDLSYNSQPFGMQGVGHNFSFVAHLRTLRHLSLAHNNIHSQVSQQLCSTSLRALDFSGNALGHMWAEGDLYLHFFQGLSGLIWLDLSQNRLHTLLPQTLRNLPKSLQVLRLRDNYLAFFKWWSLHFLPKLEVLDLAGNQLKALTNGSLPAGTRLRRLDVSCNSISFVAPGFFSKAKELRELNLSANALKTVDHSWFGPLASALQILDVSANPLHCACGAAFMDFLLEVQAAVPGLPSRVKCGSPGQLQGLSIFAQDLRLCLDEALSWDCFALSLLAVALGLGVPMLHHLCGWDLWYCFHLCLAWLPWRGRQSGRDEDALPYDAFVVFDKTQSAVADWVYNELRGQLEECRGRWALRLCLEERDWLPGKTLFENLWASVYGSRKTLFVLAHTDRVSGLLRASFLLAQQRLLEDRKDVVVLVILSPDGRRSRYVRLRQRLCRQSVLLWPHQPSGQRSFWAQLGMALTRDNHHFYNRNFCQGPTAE
Description: In such examples, inhibition of TLR9 activity can be identified by observation of an overall decreased TLR9 response of the cell population, or a lower proportion of cells having TLR9-positive activity as compared to positive control condition in which cells are treated with TLR9 agonist in the absence of the oligonucleotide (or in the presence of an appropriate control inhibitory agent). In one example, HEK cells are transfected with TLR9 and a NF-κB reporter and incubated with an oligonucleotide and then stimulated with a TLR9 agonist. TLR9 activity can then be determined by a luciferase assay. TLR9 activity can also be analysed by measuring cytokine levels (e.g., IFN, IL-6, TNF and IL-12), for example by ELISA.
as §2
Following transfection, the cells were collected from the 6-wells and aliquoted into 96-wells, just before ASO and overnight TLR stimulation (as above described). Similarly, the LL171 cells expressing and ISRE-Luc reporter were treated overnight. The next day, the cells were lysed in 40 μl (for a 96-well plate) of 1× Glo Lysis buffer (Promega) for 10 min at room temperature. […] was then subjected to firefly luciferase assay using 40 μl of Luciferase Assay Reagent (Promega). Luminescence was quantified with a Fluostar OPTIMA (BMG LABTECH) luminometer.

mC*mU*mU*mC*mG*T*G*G*G*G*T*C*C*T*T*mU*mU*mC*mA*mC (CUUCGTGGGGTCCTTUUCAC; antisense; sugars from the 5' end m5 d10 m5, all phosphorothioate, methylation of C not given here) [[HPRT]660]
TLR8 potentiation of R848 sensing, 20-mer ASOs (in words) [1]: strong potentiator of TLR8 sensing

mG*mC*mG*mG*mU*A*T*C*C*A*T*C*A*G*A*mU*mA*mU*mC*mG (mG*mC*mG*mG*mU*dA*dT*dC*dC*dA*dT*dC*dA*dG*dA*mU*mA*mU*mC*mG; antisense) [C2-ASO2-B]
inhibition of ISD70-driven IP-10 production (in words) [2]: significantly less inhibitory than C2-ASO2-A

mGmCmGmGmUmAmUmCmCmAmUmGmUmCmCmCmAmGmGmC (GCGGUAUCCAUGUCCCAGGC; all 2'-O-methyl, backbone not given here) [fully 2′Ome modified version of C2Mut1]
inhibition of ISD70-driven IP-10 production (in words) [2]: strongly blunting of cGAS activation

mU*mU*mC*mU*mG*G*G*G*A*C*T*T*C*C*A*mG*mU*mU*mU*mA (mU*mU*mC*mU*mG*dG*dG*dG*dA*dC*dT*dT*dC*dC*dA*mG*mU*mU*mU*mA; antisense) [ASO9]
inhibition of TLR9 sensing of ODN2006 (in words) [3]: significantly inhibited TLR9 sensing of ODN2006
